# Assay results reported in article PMC7763843, “Cytochrome P450 Expression and Chemical Metabolic Activity before Full Liver Development in Zebrafish” (Pharmaceuticals, 2020).
# Where a name gives a salt, the structure may show the parent alone. Read-outs that look alike come from different tables or passages of the source.
# Assays:
# cyp2y3 mRNA = conditions: 55 hpf larvae; exposure from 30 hpf; 100 µM rifampicin or phenobarbital
# Protocol: (§1) Embryos were dechorionized, except in the case of those exposed to TCDD due to high transparency. […] 1,7-Dimethylxanthine, 4′-OHDF, 5-OHDF, and 6β-hydroxytestosterone were obtained from Sigma-Aldrich. DMSO was purchased from Nacalai Tesque (Kyoto, Japan).
# (§2) Whole-mount in situ hybridization was performed as described previously. Paraformaldehyde-fixed embryos were hybridized with digoxigenin-incorporated antisense RNA probes of CYP subtypes at 65 °C overnight (DIG (digoxigenin) RNA Labeling Kit, Sigma-Aldrich). To obtain the CYP probes, CYP DNAs were amplified by PCR reaction with KOD FX Neo enzyme solution (Toyobo) with the primer sets listed in Table S2. This was followed by subcloning to pTAC2 TA vector (BioDynamics, Tokyo, Japan) and in vitro transcription with SP6 RNA polymerase (New England Biolabs, Ipswich, MA, USA). Following hybridization and washing, the embryos were incubated with anti-DIG antibody conjugated with alkaline phosphatase (Sigma-Aldrich) at 4 °C overnight. The color reaction was performed by incubation in BM Purple substrate or Fast Red (Sigma-Aldrich).
# cyp2r1 mRNA = tested on: cyp2r1 mRNA
# Protocol: as §1, §2
# cyp2n13 mRNA = conditions: 55 hpf larvae; exposure from 30 hpf; 100 µM rifampicin or phenobarbital
# Protocol: as §1, §2
# [1] = tested on: zebrafish embryos and larvae; test: Maximum test solution concentration causing neither morphological nor behavioral abnormalities; format: in vivo, Danio rerio; conditions: exposure from 5 hpf up to 120 hpf
# Protocol: (§3) To calculate the content of each compound per one whole zebrafish embryo or larva (i.e., the Ce), we first determined the maximum test solution concentrations that caused neither morphological nor behavioral abnormalities during exposure. […] Beginning at 5 hpf, normal embryos were exposed to the test solution (>1 mL/embryo) in a glass container. The plastic lid of the container was kept closed, and the embryos and larvae were maintained for up to 120 hpf at 28 ± 1 °C on a 14-h light–10-h dark cycle.
# [2] = tested on: whole zebrafish embryo or larva; test: Content of test compound per one whole zebrafish embryo or larva (Ce) every 24 hpf; format: in vivo, Danio rerio; conditions: mean ± SD, n = 3; for Ce per one whole embryo or larva: 120 hpf, exposure from 5 hpf (caffeine 10 mg/L, diclofenac 3.2 mg/L, testosterone 3.0 mg/L), maximum for caffeine
# Protocol: The chorions of embryos were removed with forceps under a microscope before sampling for the Ce measurements. The dechorionated embryos (24 hpf) or the larvae (from 48 hpf onwards) were individually transferred through four beakers (for about 10 s per beaker) containing 500 mL of fresh dechlorinated tap water to remove chemical residues on the body surface. After that step, the embryos or larvae were homogenized with a silicone pestle in a 1.5 mL sampling tube containing a mixed solvent of the same composition as each liquid chromatography eluent to extract the test compound. The dechorionated embryos or the larvae were homogenized to extract the test compound. […] The supernatant was collected in a volumetric flask. The extraction procedure was performed twice, and the supernatants from the two batches were mixed and brought up to a volume of 1 mL with the mixed solvent of the same composition as each liquid chromatography eluent to extract the test compound.
# Data were acquired in positive ion mode by using multiple reaction monitoring (MRM).
# [3] = design: method as in PMID 11448232, PMID 7714751; conditions: cited from earlier work
# [4] = tested on: whole zebrafish embryo or larva; test: Contents of test compound metabolites per whole zebrafish embryo or larva; conditions: for Ce of caffeine per whole embryo or larva: metabolite experiment (Figure 6A), exposure to caffeine 10 mg/L
# Protocol: as §3
# Then, the mixture was centrifuged at 20,000× g for 15 min at 10 °C with a refrigerated centrifuge (CR21N, Hitachi Koki). The supernatant was collected in a sampling tube. The extraction procedure was performed twice. The supernatants of two batches were mixed and the mixture was evaporated completely by nitrogen gas spraying. A solution (500 μL) of the same composition as the eluent for each compound was added to the tube, and then the solution was filtered through a Millex-LG membrane filter with a 0.2-μm pore size (Merck). The filtrate was double diluted with a solution of the same composition as the eluent for each compound, and the resulting solution was mixed to prepare the sample for measurement. For 1,7-dimethylxanthine, to standardize the content of the larval matrix, a mixture of larvae in the control or the vehicle control was added to each standard solution in a stepwise concentration to create each calibration curve.
# Each 5 μL sample was eluted in a mobile phase of methanol: water = 2:8 at a flow rate of 0.20 mL/min. 1,7-dimethylxanthine was monitored by using an ESI probe. Data were acquired in positive ion mode by using MRM. […]
# A calibration curve for each target substance (regression equation by using the least-squares method: Y = aX + b, where Y is the analytical response and X is the concentration of the target substance) was made by using four or five concentrations of standard solution. […] Then, all target substances were quantified by using the absolute calibration curve method and one concentration of standard solution. […]
# [5] = cited from earlier work; for Detection of metabolite of midazolam (neither has been detected): adult zebrafish liver microsomes or embryonic or larval microsomes or homogenates at up to 7 dpf
# zebrafish = conditions: cited from earlier work
# cyp3a65 mRNA = conditions: in vivo
# Protocol: as §1, §2
# [6] = tested on: cyp2n13, 2r1, 2y3, and 3a65; test: qPCR of CYP subtypes in 55 hpf larvae after inducer exposure; conditions: 100 µM
# Source text: as §1
# [7] = 55 hpf larvae, exposure from 30 hpf, 1.0 ppb TCDD, 100 µM phenobarbital or rifampicin
structure (smiles),measurement,setting,value
CCC1(c2ccccc2)C(=O)NC(=O)NC1=O [phenobarbital],cyp2y3 mRNA by in situ hybridization (liver and intestine locations),cyp2y3 mRNA,detectable
same,cyp2r1 mRNA signal by in situ hybridization (location similar to liver),cyp2r1 mRNA; in vivo,Positive signals
same,cyp2N13 mRNA expression by in situ hybridization,cyp2n13 mRNA,detected
CO[C@H]1/C=C/O[C@@]2(C)Oc3c(C)c(O)c4c(O)c(c(/C=N/N5CCN(C)CC5)c(O)c4c3C2=O)NC(=O)/C(C)=C\C=C\[C@H](C)[C@H](O)[C@@H](C)[C@@H](O)[C@@H](C)[C@H](OC(C)=O)[C@@H]1C [rifampicin],cyp2r1 mRNA signal by in situ hybridization (location similar to liver),cyp2r1 mRNA; [7],Positive signals
same,cyp2N13 mRNA expression by in situ hybridization,cyp2n13 mRNA,detected
Cn1c(=O)c2c(ncn2C)n(C)c1=O [caffeine],Maximum test solution concentration that caused neither morphological nor behavioral abnormalities during exposure,[1],10 mg/L
same,Ce per one whole embryo or larva,[2],4.54 ± 0.10 ng
same,log Kow,[3],−0.07
same,Ce of caffeine per whole embryo or larva,[4]; 50 hpf,2.69 ± 0.14 ng
same,Ce of caffeine per whole embryo or larva,[4]; 120 hpf,5.15 ± 0.31 ng
Cc1ncc2n1-c1ccc(Cl)cc1C(c1ccccc1F)=NC2O (stereo not drawn) [4-hydroxymidazolam],Detection of metabolite of midazolam (neither has been detected),[5],Neither
COc1ccc2c(c1)[C@@]13CCCC[C@H]1[C@@H](C2)NCC3 [3-Methoxymorphinan],Detection of metabolite of dextromethorphan,[5]; adult zebrafish liver microsomes,detected
Nc1c2c(nc3ccccc13)CCCC2 [tacrine],Detection of human CYP1A2-mediated metabolites,"zebrafish; zebrafish, in vivo",detected
"Clc1cc2c(cc1Cl)Oc1cc(Cl)c(Cl)cc1O2 [TCDD, 2,3,7,8-tetrachlorodibenzo-p-dioxin]",cyp3a65 mRNA signal by in situ hybridization,cyp3a65 mRNA,signal appeared in some
same,cyp2r1 mRNA signal by in situ hybridization (location similar to liver),cyp2r1 mRNA; [7],Positive signals
C[C@]12CC[C@H]3[C@@H](CCC4=CC(=O)CC[C@@]43C)[C@@H]1CC[C@@H]2O [testosterone],Maximum test solution concentration that caused neither morphological nor behavioral abnormalities during exposure,[1],3.0 mg/L
same,Ce per embryo or larva (maximum value),"[2]; 48 hpf, exposure to 3.0 mg/L from 5 hpf",12.8 ± 1.14 ng
same,Ce per one whole embryo or larva,[2],1.43 ± 0.11 ng
"O=C(O)Cc1ccccc1Nc1c(Cl)cccc1Cl [diclofenac, diclofenac sodium salt]",Maximum test solution concentration that caused neither morphological nor behavioral abnormalities during exposure,[1],3.2 mg/L
same,Ce per embryo or larva (maximum value),"[2]; 72 hpf, exposure to 3.2 mg/L from 5 hpf",1.64 ± 0.15 ng
same,log Kow,[3]; pH 7.4,1.13
COc1ccc2c(c1)[C@]13CCCC[C@@H]1[C@H](C2)N(C)CC3 [dextromethorphan],Detection of metabolites of the compound,"[5]; microsomes from whole embryos or larvae at 5, 24, 48, 72, 96, or 120 hpf",no metabolites of this compound have been detected
OCc1ncc2n1-c1ccc(Cl)cc1C(c1ccccc1F)=NC2 [1-hydroxymidazolam],Detection of metabolite of midazolam (neither has been detected),[5],Neither
C[C@]12CC[C@H]3[C@@H](C[C@@H](O)C4=CC(=O)CC[C@@]43C)[C@@H]1CC[C@@H]2O [6β-hydroxytestosterone],Detection of metabolite in embryos or larvae,"[4]; 50 or 120 hpf, during exposure to testosterone",not detected
same,Detection of metabolite of testosterone,zebrafish; zebrafish larvae at 7 dpf or zebrafish adults,detected
O=c1cc(-c2ccccc2)oc2ccc3ccccc3c12 [β-naphthoflavone],"Significant induction of cyp2n13, 2r1, 2y3, and 3a65 by qPCR",[6],not recognized
CCOc1ccc(NC(C)=O)cc1 [phenacetin],Detection of human CYP1A2-mediated metabolites,zebrafish; zebrafish 7 dpf incubated with the drug,detected
